Values of other authors, collected in patent US20230066502A1, “PREDICTION METHOD FOR INDICATION OF AIMED DRUG OR EQUIVALENT SUBSTANCE OF DRUG, PREDICTION APPARATUS, AND PREDICTION PROGRAM” (KARYDO THERAPEUTIX, INC., priority 2020, published 2023).

Conditions: for occurrence frequency of adverse event Blood glucose decreased / occurrence frequency of adverse event Sleep disorder: FIG. 3 example of training data, already reported adverse event-related information, cases of this adverse event / total adverse event cases for the drug; for occurrence frequency of adverse event Low blood sugar / occurrence frequency of adverse event sleepiness: FIG. 7 example of second training data calculated from FAERS adverse event data, maximum value 1

| Compound | occurrence frequency of adverse event Blood glucose decreased | occurrence frequency of adverse event Sleep disorder | occurrence frequency of adverse event Low blood sugar | occurrence frequency of adverse event sleepiness |
| --- | --- | --- | --- | --- |
| O=C1CCc2ccc(OCCCCN3CCN(c4cccc(Cl)c4Cl)CC3)cc2N1 [aripiprazole] | 0.009 | 0.026 | 0.0 | 0.5 |
| OC[C@H]1O[C@@H](c2ccc(Cl)c(Cc3ccc(O[C@H]4CCOC4)cc3)c2)[C@H](O)[C@@H](O)[C@@H]1O [EMPA, empagliflozin] | 0.141 | 0.007 | 0.12 | 0.01 |
